# Measurements: ChEMBL document CHEMBL1201862, “PubChem BioAssay data set” (2004)
#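 Growth conditions: 96-well plates. Treatment: test compound, 48 hours, 5 concentrations. Analysis: linear interpolation between bracketing concentrations; unreached endpoints set to highest concentration. Abbreviation: GI50, concentration required for 50% inhibition of growth.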 Active and inactive are the calls of the source. Cut-off read from the data, not from the text of the source: active = GI50 up to about 1.1 µM and inactive = higher.
# Experiments:
# Assay in all cases: DTP human tumour cell line panel, 48 h
# A498 = tested on: A498
# ACHN = tested on: ACHN
# DU-145 = tested on: DU-145
# EKVX = tested on: EKVX
# HL-60 = tested on: HL-60
# Hs-578T = tested on: Hs-578T
# MCF7 = tested on: MCF7
# MDA-MB-231 = tested on: MDA-MB-231
# MDA-MB-435 = tested on: MDA-MB-435
# NCI-H460 = tested on: NCI-H460
# NCI-H522 = tested on: NCI-H522
# OVCAR-5 = tested on: OVCAR-5
# OVCAR-8 = tested on: OVCAR-8
# PC-3 = tested on: PC-3
# RPMI-8226 = tested on: RPMI-8226
# SF-539 = tested on: SF-539
# SNB-19 = tested on: SNB-19
# TK-10 = tested on: TK-10
# OVCAR-4 = tested on: OVCAR-4
SMILES,GI50 (A498),GI50 (ACHN),GI50 (DU-145),GI50 (EKVX),GI50 (HL-60),GI50 (Hs-578T),GI50 (MCF7),GI50 (MDA-MB-231),GI50 (MDA-MB-435),GI50 (NCI-H460),GI50 (NCI-H522),GI50 (OVCAR-5),GI50 (OVCAR-8),GI50 (PC-3),GI50 (RPMI-8226),GI50 (SF-539),GI50 (SNB-19),GI50 (TK-10),GI50 (OVCAR-4)
O=c1[nH]/c(=C/c2ccc(OCc3ccccc3)cn2)c(=O)[nH]/c1=C/c1ccc(F)cc1,0.834 µM (active),1.72 µM (inactive),0.931 µM (active),3.49 µM (inactive),0.217 µM (active),0.542 µM (active),0.301 µM (active),8.13 µM (inactive),0.0902 µM (active),0.541 µM (active),0.41 µM (active),> 33.3 µM (inactive),3.74 µM (inactive),0.632 µM (active),0.194 µM (active),0.923 µM (active),2.3 µM (inactive),4.36 µM (inactive),
NC(=O)N/N=C\CC(O)(C(F)(F)Cl)C(F)(F)Cl,> 10 µM (inactive),> 10 µM (inactive),> 10 µM (inactive),> 10 µM (inactive),> 10 µM (inactive),> 10 µM (inactive),> 10 µM (inactive),> 10 µM (inactive),> 10 µM (inactive),> 10 µM (inactive),> 10 µM (inactive),,> 10 µM (inactive),> 10 µM (inactive),> 10 µM (inactive),> 10 µM (inactive),> 10 µM (inactive),> 10 µM (inactive),> 10 µM (inactive)
Cc1ncc([N+](=O)[O-])n1CCNC(=O)CCC(=O)NCCCn1ccnc1[N+](=O)[O-],> 100 µM (inactive),> 100 µM (inactive),> 100 µM (inactive),> 100 µM (inactive),> 100 µM (inactive),> 100 µM (inactive),> 100 µM (inactive),> 100 µM (inactive),> 100 µM (inactive),> 100 µM (inactive),> 100 µM (inactive),> 100 µM (inactive),> 100 µM (inactive),> 100 µM (inactive),> 100 µM (inactive),> 100 µM (inactive),,> 100 µM (inactive),> 100 µM (inactive)
O=C(CCCCCC(=O)N1CC(CCl)c2ccc([N+](=O)[O-])cc21)N1CC(CCl)c2ccc([N+](=O)[O-])cc21 (stereo not given),87.1 µM (inactive),> 100 µM (inactive),> 100 µM (inactive),> 100 µM (inactive),75.3 µM (inactive),> 100 µM (inactive),36.9 µM (inactive),> 100 µM (inactive),> 100 µM (inactive),34 µM (inactive),> 100 µM (inactive),> 100 µM (inactive),> 100 µM (inactive),> 100 µM (inactive),,> 100 µM (inactive),> 100 µM (inactive),> 100 µM (inactive),> 100 µM (inactive)
COc1cc(OC)c2nccc(NCCCN(C)C)c2c1[N+](=O)[O-],> 100 µM (inactive),> 100 µM (inactive),> 100 µM (inactive),,39.3 µM (inactive),> 100 µM (inactive),> 100 µM (inactive),> 100 µM (inactive),> 100 µM (inactive),65.3 µM (inactive),> 100 µM (inactive),> 100 µM (inactive),> 100 µM (inactive),> 100 µM (inactive),> 100 µM (inactive),45.7 µM (inactive),> 100 µM (inactive),> 100 µM (inactive),> 100 µM (inactive)
O=C(O)[C@H]1NC[C@@H]2ON=C(Br)[C@@H]21,> 100 µM (inactive),> 100 µM (inactive),> 100 µM (inactive),> 100 µM (inactive),> 100 µM (inactive),> 100 µM (inactive),> 100 µM (inactive),> 100 µM (inactive),> 100 µM (inactive),> 100 µM (inactive),> 100 µM (inactive),> 100 µM (inactive),> 100 µM (inactive),> 100 µM (inactive),> 100 µM (inactive),> 100 µM (inactive),> 100 µM (inactive),> 100 µM (inactive),> 100 µM (inactive)
COP(=O)(O)/C=C/C(NC(=O)C(Cl)(Cl)Cl)c1ccccc1 (stereo not given),> 100 µM (inactive),> 100 µM (inactive),> 100 µM (inactive),> 100 µM (inactive),> 100 µM (inactive),> 100 µM (inactive),> 100 µM (inactive),> 100 µM (inactive),> 100 µM (inactive),> 100 µM (inactive),> 100 µM (inactive),> 100 µM (inactive),> 100 µM (inactive),> 100 µM (inactive),> 100 µM (inactive),,> 100 µM (inactive),> 100 µM (inactive),> 100 µM (inactive)
CSC[C@H](NC(=O)COc1cccc2cnccc12)C(=O)NC(Cc1ccccc1)C(O)C(=O)N1CSC[C@H]1C(=O)NC(C)(C)C (stereo not given in full),68.2 µM (inactive),24.4 µM (inactive),42.8 µM (inactive),,33.8 µM (inactive),89.3 µM (inactive),68.2 µM (inactive),> 100 µM (inactive),87.5 µM (inactive),38.9 µM (inactive),> 100 µM (inactive),> 100 µM (inactive),78.3 µM (inactive),24 µM (inactive),23.6 µM (inactive),11 µM (inactive),> 100 µM (inactive),> 100 µM (inactive),57.5 µM (inactive)
